This is an account of results in ChEMBL document CHEMBL1141312, “Induction of apoptosis by diterpenes from the soft coral Xenia elongata” (2007).

Calls of active or inactive are those of the source. The rule behind the calls is not given here.

In test [1] the test system is D3. The test can be described thus: Induction of apoptosis in mouse apoptosis-resistant D3 cells assessed as cell growth at 12 uM after 72 hrs by MTT assay. It counts as functional, cell-based.
Test [2] is described as follows: Induction of apoptosis in apoptosis-resistant mouse D3 cells assessed as cell growth after 48 hrs by MTT assay. The class given is functional.
Test [3] is described as follows: (§1) Induction of apoptosis in mouse W2 cells assessed as cell death after 48 hrs by MTT assay. It counts as functional. Background: Tetrazolium dyes change colour on reduction, which living cells bring about.
The test system of test [4] is D3. Put plainly: Induction of apoptosis in mouse apoptosis-resistant D3 cells assessed as cell growth at 12 uM after 48 hrs by MTT assay. It counts as functional, cell-based.
For test [5], the system named is W2. Described as §1. It counts as functional.

Consider `C=C1CC/C=C(\C)CC[C@@H]2C(C(CC3OC3(C)C)OC(C)=O)=CO[C@H](OC(C)=O)[C@@H]12` (some centres not stated), for which the result in test [1] and in test [4] was Active. Further, the Activity in test [2] is listed as 61%; in test [3] it was 50%.
Turning to `C=C1CC/C=C(\C)CC[C@H](/C(=C\C=C\C(C)(C)O)COC(C)=O)[C@H]1C(OC)OC`, the result in test [5] was Active.
As to `C=C1CC/C=C(\C)CC[C@H](/C(=C/C=C/C(C)(C)O)COC(C)=O)[C@H]1C(=O)OC`, the outcome in test [5] was Active.
With `C=C1CC/C=C(\C)CC[C@H](/C(=C\CC=C(C)C)COC(C)=O)[C@H]1C(=O)OC`, the result in test [5] was Active.
